# Results published in ChEMBL document CHEMBL4007491, “Structure-based drug design of novel ASK1 inhibitors using an integrated lead optimization strategy” (Bioorg Med Chem Lett, 2017).
# Experiments:
# [1] = target: T1, Tyrosine-protein kinase ITK/TSK (Homo sapiens, UniProt Q08881); assay: Inhibition of recombinant full length human GST-tagged ITK expressed in baculovirus expression system
# T1 sequence (Q08881 whole entry): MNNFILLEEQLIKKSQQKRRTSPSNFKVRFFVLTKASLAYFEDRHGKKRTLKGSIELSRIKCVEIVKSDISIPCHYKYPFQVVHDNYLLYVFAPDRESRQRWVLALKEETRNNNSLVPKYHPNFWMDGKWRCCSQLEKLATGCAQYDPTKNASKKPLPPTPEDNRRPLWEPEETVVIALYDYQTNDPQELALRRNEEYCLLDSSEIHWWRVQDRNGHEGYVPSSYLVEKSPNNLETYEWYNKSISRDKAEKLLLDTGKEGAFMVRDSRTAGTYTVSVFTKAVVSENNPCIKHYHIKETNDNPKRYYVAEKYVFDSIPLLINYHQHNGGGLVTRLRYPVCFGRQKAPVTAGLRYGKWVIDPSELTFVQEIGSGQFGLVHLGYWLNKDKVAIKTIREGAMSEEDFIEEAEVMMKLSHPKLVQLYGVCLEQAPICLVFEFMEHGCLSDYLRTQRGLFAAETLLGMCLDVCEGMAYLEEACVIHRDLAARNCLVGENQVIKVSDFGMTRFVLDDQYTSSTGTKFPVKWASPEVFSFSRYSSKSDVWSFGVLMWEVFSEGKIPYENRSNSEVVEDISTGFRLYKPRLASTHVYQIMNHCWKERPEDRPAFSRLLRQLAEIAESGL
# CYP2C9 = CYP2C9 (Homo sapiens, UniProt P11712); assay: Inhibition of CYP2C9 (unknown origin) at 10 uM relative to control; format: ADME
# Chain of CYP2C9 (P11712 whole entry, the tested form may be a part): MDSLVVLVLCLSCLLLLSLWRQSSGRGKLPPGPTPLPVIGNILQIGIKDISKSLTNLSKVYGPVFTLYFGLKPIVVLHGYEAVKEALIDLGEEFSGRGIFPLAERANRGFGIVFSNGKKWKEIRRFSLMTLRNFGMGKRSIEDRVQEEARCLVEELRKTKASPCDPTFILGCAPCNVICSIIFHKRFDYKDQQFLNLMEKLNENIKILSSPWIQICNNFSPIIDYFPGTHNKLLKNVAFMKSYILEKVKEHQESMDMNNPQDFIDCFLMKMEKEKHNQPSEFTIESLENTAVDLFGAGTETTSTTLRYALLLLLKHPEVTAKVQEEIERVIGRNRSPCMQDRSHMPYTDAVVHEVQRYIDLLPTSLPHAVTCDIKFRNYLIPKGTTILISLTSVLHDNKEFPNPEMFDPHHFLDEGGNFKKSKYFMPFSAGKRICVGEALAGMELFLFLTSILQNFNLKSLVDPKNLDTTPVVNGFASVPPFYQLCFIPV
# [2] = target: T2, Tyrosine-protein kinase Mer (Homo sapiens, UniProt Q12866); assay: Inhibition of recombinant human GST-tagged MER cytoplasmic domain expressed in baculovirus expression system
# T2 sequence (Q12866 whole entry): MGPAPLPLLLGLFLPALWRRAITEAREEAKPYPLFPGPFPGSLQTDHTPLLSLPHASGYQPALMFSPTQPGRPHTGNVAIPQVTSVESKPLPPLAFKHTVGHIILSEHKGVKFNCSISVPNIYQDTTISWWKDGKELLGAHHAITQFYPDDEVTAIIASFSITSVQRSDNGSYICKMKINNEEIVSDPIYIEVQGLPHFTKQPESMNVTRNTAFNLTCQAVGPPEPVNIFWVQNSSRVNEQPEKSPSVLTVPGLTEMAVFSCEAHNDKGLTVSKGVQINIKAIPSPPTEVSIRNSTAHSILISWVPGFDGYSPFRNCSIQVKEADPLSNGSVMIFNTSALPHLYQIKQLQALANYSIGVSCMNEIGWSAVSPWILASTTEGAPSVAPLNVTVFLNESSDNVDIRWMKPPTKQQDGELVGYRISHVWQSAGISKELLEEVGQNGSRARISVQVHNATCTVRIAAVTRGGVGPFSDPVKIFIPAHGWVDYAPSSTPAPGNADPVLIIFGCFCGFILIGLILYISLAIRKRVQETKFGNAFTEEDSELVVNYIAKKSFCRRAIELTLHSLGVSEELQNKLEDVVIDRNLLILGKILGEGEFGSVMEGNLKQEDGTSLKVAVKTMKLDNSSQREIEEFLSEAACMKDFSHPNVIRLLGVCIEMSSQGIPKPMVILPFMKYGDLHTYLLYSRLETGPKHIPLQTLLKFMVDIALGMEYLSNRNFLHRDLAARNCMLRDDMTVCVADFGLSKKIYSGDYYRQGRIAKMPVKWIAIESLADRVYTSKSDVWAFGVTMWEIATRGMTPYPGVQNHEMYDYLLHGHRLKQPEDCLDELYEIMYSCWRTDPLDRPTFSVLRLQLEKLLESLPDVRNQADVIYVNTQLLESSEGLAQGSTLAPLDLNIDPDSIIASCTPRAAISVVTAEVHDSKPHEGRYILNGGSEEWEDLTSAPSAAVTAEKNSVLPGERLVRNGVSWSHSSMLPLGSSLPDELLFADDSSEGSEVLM
# Ephrin type-A receptor 3 = target: T3, Ephrin type-A receptor 3 (Homo sapiens, UniProt P29320); assay: Inhibition of recombinant human His-tagged EPHA3 cytoplasmic domain (569 to 976 residues) expressed in baculovirus expression system
# T3 sequence (P29320 whole entry): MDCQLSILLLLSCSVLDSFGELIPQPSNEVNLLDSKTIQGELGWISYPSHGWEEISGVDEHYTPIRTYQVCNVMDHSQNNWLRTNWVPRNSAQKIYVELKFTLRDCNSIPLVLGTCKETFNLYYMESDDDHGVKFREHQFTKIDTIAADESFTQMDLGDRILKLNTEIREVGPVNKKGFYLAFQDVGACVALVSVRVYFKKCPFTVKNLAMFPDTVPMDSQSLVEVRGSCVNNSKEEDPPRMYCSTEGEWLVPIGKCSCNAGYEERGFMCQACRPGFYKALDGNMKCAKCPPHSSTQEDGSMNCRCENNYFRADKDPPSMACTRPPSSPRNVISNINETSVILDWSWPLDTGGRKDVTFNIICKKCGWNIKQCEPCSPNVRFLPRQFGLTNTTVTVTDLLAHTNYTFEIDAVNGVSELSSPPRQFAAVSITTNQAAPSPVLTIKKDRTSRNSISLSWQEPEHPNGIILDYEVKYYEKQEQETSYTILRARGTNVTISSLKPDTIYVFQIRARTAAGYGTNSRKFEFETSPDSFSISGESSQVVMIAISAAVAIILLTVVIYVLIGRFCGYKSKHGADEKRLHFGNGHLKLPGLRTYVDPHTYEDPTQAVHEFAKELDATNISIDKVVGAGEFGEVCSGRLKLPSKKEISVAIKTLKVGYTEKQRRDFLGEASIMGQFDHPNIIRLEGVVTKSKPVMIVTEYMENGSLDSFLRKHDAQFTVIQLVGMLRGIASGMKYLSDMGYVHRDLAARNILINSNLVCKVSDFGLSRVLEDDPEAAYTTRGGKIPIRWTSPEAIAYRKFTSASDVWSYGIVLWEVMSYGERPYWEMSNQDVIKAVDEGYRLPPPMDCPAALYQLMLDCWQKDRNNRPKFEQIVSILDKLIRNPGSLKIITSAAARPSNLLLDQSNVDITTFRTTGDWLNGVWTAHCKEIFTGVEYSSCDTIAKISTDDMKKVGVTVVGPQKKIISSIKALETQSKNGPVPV
# [3] = Thermodynamic solubility of the compound in pH 6.8 solution; format: physicochemical; conditions: read-out: Therm_solubility
compound,measurement,setting,value
COCCn1cc(NC(=O)c2csc(-c3nncn3C(C)C)n2)cn1,IC50,[1],> 20 µM
same,inhibition at 10 µM,CYP2C9,36%
same,IC50,[2],7.59 µM
same,IC50,Ephrin type-A receptor 3,> 20 µM
same,solubility thermodynamic,[3],208 µM
